The nature of data set [1]: Water solubility / feasibility of intravenous administration.
The next data set in a line: Hydrolysis in 5% NaHCO3. The format is physicochemical. Conditions: one hour.
Data set [2] is described as follows: Hydrolysis to hydrocodone in 1 N HCl. Conditions: 1 hour.
Data set [3] is described as follows: Intranasal PK of hydrocodone conjugates in rats. Conditions: equivalent to 2 mg/kg hydrocodone freebase.
A short description of data set [4]: Oral dose escalation study in rats. Particulars: oral solutions, escalating dosages.
Data set [5] can be described thus: Tamper resistance study (extraction methods, HPLC). The data set is classed as physicochemical. The text has this: Certain prodrug conjugates of the present technology were exposed to various commonly applied “extraction methods” to test for hydrolysis and/or decomposition of the prodrug.
Data set [6] is described as follows: Chemical stability (hydrolysis) of hydrocodone conjugates in water. The data set is classed as physicochemical. Conditions: one hour. As for the experimental part: Exemplary conjugates of hydrocodone of the present technology and control test conjugates not of the present technology were tested for chemical stability under conditions similar to what a potential drug abuser may use to “extract” the active portion of the molecule, for example dissolved in water, hydrochloric acid or sodium bicarbonate either at ambient temperature or 100° C.

Data set [7] is described as follows: Oral PK of hydrocodone conjugates in rats (plasma hydrocodone, hydromorphone, intact conjugate by LC-MS/MS).
Another data set is described as follows: Oral PK in dogs. Conditions: equivalent to 2 mg/kg freebase hydrocodone.
The mark [8] stands for this setting: ambient temperature (about 20° C.).
The mark [9] stands for this setting: equivalent to 2 mg/kg freebase hydrocodone.
The mark [10] stands for this setting: equivalent to 2 mg/kg hydrocodone freebase.

Where no end group is shown, it is not given here.

Turning to `COc1ccc2c3c1OC1C(OC(=O)CCCCC(=O)O)=CC[C@H]4[C@@H](C2)N(C)CC[C@]314` (stereo partly drawn) [Adipate-HC], the “solubility in water (intravenous administration at oral equivalent doses)” value (“solubility in water” below) in [1] was “water soluble”. The “%-release in 5% NaHCO3” value in the data set “Hydrolysis in 5% NaHCO3” (100° C. oil bath) stood at 100%. Besides, the “%-release in 5% NaHCO3” value in the data set “Hydrolysis in 5% NaHCO3” (ambient (~20° C.)) was 3%. The “%-release in 1 N HCl” value in [2] (100° C. oil bath) came to 100%. The “%-release in 1 N HCl” value in data set [2] (ambient (~20° C.)) came out at 13%. Further, in [3], the “AUC for hydromorphone released from Adipate-HC, higher than Bz-HC (sentence on hydrocodone plasma concentrations, FIG. 3)” value is “approximately 280%”; the “Cmax for hydromorphone released from Adipate-HC, higher than Bz-HC (sentence on hydrocodone plasma concentrations, FIG. 3)” value is around 60%; the “hydromorphone AUC, higher than Bz-HC (FIG. 4)” value is listed as “approximately 750%”; the “hydromorphone Cmax, higher than Bz-HC (FIG. 4)” value is around 660%.

For the compound `CC(=O)Oc1ccccc1C(=O)OC1=CCC2C3Cc4ccc(OC(=O)c5ccccc5OC(C)=O)c5c4C2(CCN3C)C1O5` (stereo not drawn) [3,6-di-aspirin-HM, 3,6,-di-aspirin-hydromorphone], in [4], the “exposure (AUC) to hydromorphone at doses above the therapeutic level” value is “reached a plateau”. Also, in [5], the “stability under commonly applied extraction methods” value was “chemically stable”. In addition, the “Release of hydromorphone (as %-AUC by HPLC)” value (from here on “Release … (as %-AUC by HPLC)”) amounted to 0% in data set [5] (1 N HCl, ambient temperature, 30 min.); 0% in data set [5] (1 N HCl, ambient temperature, 60 min.); 1% in data set [5] (1 N NaOH, ambient temperature, 30 min.); 1% in data set [5] (1 N NaOH, ambient temperature, 60 min.); 1% in data set [5] (4 N NaOH, ambient temperature, 30 min.); 6% in [5] (4 N NaOH, ambient temperature, 60 min.). The “Release … (as %-AUC by HPLC)” value in data set [5] (5% Acetic acid, ambient temperature, 30 min.) came to 0%; in data set [5] (5% Acetic acid, ambient temperature, 60 min.) it was 0%; in [5] (Glacial acetic acid, ambient temperature, 30 min.), 0%; in [5] (Glacial acetic acid, ambient temperature, 60 min.), 0%; in data set [5] (Sat. NaHCO3, ambient temperature, 30 min.), 0%; in data set [5] (Sat. NaHCO3, ambient temperature, 60 min.), 0%. The “Release … (as %-AUC by HPLC)” value in data set [5] (Water, ambient temperature, 30 min.) worked out at 0%; in data set [5] (Water, ambient temperature, 60 min.), 0%.

Regarding `COc1ccc(C(=O)OC2=CC[C@H]3[C@H]4Cc5ccc(OC)c6c5[C@@]3(CCN4C)C2O6)cc1` (stereo partly drawn) [Compound 4-MeO-Bz-HC], the “solubility in water” value in [1] was “hydrophobic”. The “amount of conjugate hydrolyzed in water” value in data set [6] (100° C. oil bath) and in data set [6] (setting [8]) was 0% in each case.

Take `COc1ccc2c3c1OC1C(OC(=O)c4ccccc4)=CCC4C(C2)N(C)CCC314` (stereo not drawn) [Bz-HC, benzhydrocodone]: the “solubility in water” value in data set [1] was “hydrophobic”. Further, the “water solubility (or solubility in PBS)” value in data set [1] (0.30 mg/kg close to the maximum intravenous dose in rats) is on record as “poor”. In [7] (doses above 2.00 mg/kg), the “maximum plasma concentrations of hydromorphone versus dose” value is “did not significantly change”. In addition, the “exposures (AUC) to hydrocodone and hydromorphone versus dose” value in data set [7] (doses between 0.25 and 4.00 mg/kg) is recorded as “fairly linear”. Further, in data set [7] (setting [9]), the “AUC for intact Bz-HC as % of the AUC for hydrocodone” value is reported as “approximately 10%” and the “AUC for intact Bz-HC as % of the AUC for hydromorphone” value is around 3%. Besides, the “hydrocodone Cmax compared with Hydrocodone.BT” value in data set [7] (setting [10]) is on record as “approximately equal”. Moreover, the “AUC for intact Bz-HC as % of the AUC for hydrocodone” value in “Oral PK in dogs” is “approximately 10%”.

Turning to `COc1ccc2c3c1OC1C(OC(=O)c4ccc5c(c4)OCO5)=CC[C@H]4[C@@H](C2)N(C)CC[C@]314` (stereo partly drawn) [Piperonylate-HC], the “solubility in water” value in data set [1] is “hydrophobic”.

Consider “2-aminobenzoate-hydrocodone [Compound 2-Abz-HC]”, for which, in data set [7] (setting [10]), the “hydrocodone AUC, lower than Hydrocodone.BT” value is “approximately 35%”; the “hydrocodone Cmax, lower than Hydrocodone.BT” value is around 60%; the “hydrocodone Tmax compared with Hydrocodone.BT” value was “approximately four times longer”; the “hydromorphone AUC, lower than Hydrocodone.BT” value is listed as “approximately 25%”. Besides, the “hydromorphone Cmax, lower than Hydrocodone.BT” value in data set [7] (setting [10]) is on record as around 50%. Moreover, the “%-release in 1 N HCl” value in [2] (100° C. oil bath) amounted to 16%. Also, in data set [2] (ambient (~20° C.)), the “%-release in 1 N HCl” value amounted to 0%. Besides, the “amount of conjugate hydrolyzed in water” value in data set [6] (100° C. oil bath) came to 0%. Besides, in data set [6] (setting [8]), the “amount of conjugate hydrolyzed in water” value was 0%.

For the compound `COc1ccc(C(=O)OC2=CC[C@H]3[C@H]4Cc5ccc(OC)c6c5[C@@]3(CCN4C)C2O6)cc1O` (stereo partly drawn) [3-OH-4-MeO-Bz-HC], the “solubility in water” value in data set [1] is reported as “hydrophobic”. For the same compound, the results for the “%-release in 5% NaHCO3” value in the data set “Hydrolysis in 5% NaHCO3” (100° C. oil bath) and in the data set “Hydrolysis in 5% NaHCO3” (ambient (~20° C.)) were 36% and 0%, respectively. For the same compound, the “%-release in 1 N HCl” value was 35% in data set [2] (100° C. oil bath) and 0% in data set [2] (ambient (~20° C.)).

Consider “Tyr-Tyr-Phe-Phe-Ile-Hydrocodone (YYFFI-hydrocodone) [YYFFI-HC]”, for which the figures for the “%-release in 5% NaHCO3” value in “Hydrolysis in 5% NaHCO3” (100° C. oil bath) and in “Hydrolysis in 5% NaHCO3” (ambient (~20° C.)) were 70% and 0%, respectively.

`COc1ccc2c3c1OC1C(OC(=O)COCC(=O)O)=CC[C@H]4[C@@H](C2)N(C)CC[C@]314` (stereo partly drawn) [Diglycolate-HC, reference compound]: in [1], the “solubility in water” value is on record as “water soluble”.

The values above are taken from patent US20200038383A1, “IMMEDIATE-RELEASE ABUSE DETERRENT CO[…] MEDICAMENTS FOR TREATING PAIN, ADD, ADHD AND OTHER SYNDROMES OR DISORDERS” (KEMPHARM, INC., priority 2016, published 2020).
